# Laboratory results taken from US12508280B2, “Formulations for improving gut health” (DSM IP ASSETS B.V., priority 2018, dated 2025).
# Legend:
# litter microbiota = experiment: Broiler feeding trial, litter microbiota; type: in vivo, chickens; conditions: groups A, B, C
# Text: (§1) Each group was sampled three times (i.e., S1=14 days, S2=28 days, S3=38/42 days) in specific days corresponding to when the feed will be changed along the feeding program.
# (§2) During each sampling (i.e., S1, S2 and S3) a total of 40 birds/group were humanely euthanized and 9 litter samples will be collected (i.e., 3 samples/group).
# (§3) 16S rRNA gene PCR amplification and sequencing. The V3-V4 hypervariable region of the 16S rRNA gene was PCR-amplified using 341F and 785R primers with Illumina overhang adaptors sequences. Amplicons purification was performed by using AMPure XP Beads magnetic beads (Beckman Coulter, Brea, CA). For the indexed library preparation, the Nextera XT DNA Library Prep Kit (Illumina, San Diego, CA) was used. A further magnetic beads purification step was performed and libraries quantified using the Qubit 3.0 fluorimeter (Invitrogen), then pooled at 4 nM. The library pool was denatured with NaOH 0.2 N and diluted to 6 μM. […]
# (§4) Bioinformatics and statistics. […] After chimera sequences removal, high-quality reads were filtered and binned into high-resolution operational taxonomic units (OTUs) according to the taxonomic threshold of 99% through an open-reference strategy performed with dada2 (Callahan et al, 2016). […] Alpha diversity was measured using Faith PD index and number of observed OTUs. […]
# [1] = test system: caecum content metagenome; experiment: Broiler feeding trial, cecal metagenomic analysis (KEGG and SEED functional genes); type: in vivo, chickens; conditions: treated groups (B and C) vs control group (A)
# Protocol: The DNA are being extracted from each sample of caecum content using a bead-beating procedure. Briefly, 0.25 g of cecal content are suspended in 1 ml lysis buffer (500 mM NaCl, 50 mM Tris-Cl, pH 8.0, 50 mM EDTA, 4% SDS) with MagNA Lyser Green Beads (Roche, Milan, Italy) and homogenized on the MagNA Lyser (Roche) for 25 sec at 6500 rpm. The samples are then heated at 70° C. for 15 min, followed by centrifugation to separate the DNA from the bacterial cellular debris. This process is repeated with a second 300 μl aliquot of lysis buffer. The samples are then subjected to 10 M v/v ammonium acetate (Sigma, Milan, Italy) precipitation, followed by isopropanol (Sigma) precipitation and a 70% ethanol (Carlo Erba, Milan, Italy) wash and re-suspended in 100 ul 1× Tris-EDTA (Sigma). The samples are then treated with DNase-free RNase (Roche) and incubated overnight at 4° C., before being processed through the QIAmp® DNA Stool Mini Kit (Qiagen, Milan, Italy) according to manufacturer's directions with some modifications. Samples are measured on a BioSpectrometer® (Eppendorf, Milan, Italy) to assess DNA quantity and quality. […]
# Filtering and trimming of raw reads were performed using MGRast (MR) (mgrast.org) (Keegan et al., 2016) bioinformatics pipelines. […]
# ileal microbiota = experiment: Broiler feeding trial, ileal microbiota 16S rRNA sequencing; type: in vivo, chickens; conditions: Groups B and C; T2 and T3, significant for T2 only, P<0.0001
# Text: as §1, §2, §3, §4
# Bifidobacterium = experiment: Microbiome composition by shotgun sequencing: Bifidobacterium (first set); type: cell-based, human; conditions: after 24 h fermentation, vs corresponding control
# [2] = test system: genes involved in Acetyl-CoA fermentation to Butyrate pathway; experiment: Shotgun sequencing functional analysis: butyrate pathway genes (first set); type: cell-based, human; conditions: 0.2× dose; after 24 h fermentation; vs corresponding control
# [3] = test system: fecal suspension from the selected donor; experiment: Gas production in closed colon incubations (first set); type: cell-based, human; conditions: after 48 h fermentation, vs corresponding control
# Protocol: The colon incubations were performed in closed incubation systems. This allowed us to evaluate the accumulation of gasses in the headspace, which can be measured with a pressure meter. Gas production is a measure of microbial activity, and thus of the speed of fermentation of the potentially prebiotic substrates. It can be used as an indication for bloating and digestive wellbeing upon prebiotic consumption.
# Since ethanol is known to have antimicrobial effects, two blanks for each type of stock solution were included. As a source of the microbial community, a freshly prepared fecal suspension from the selected donor was added to the reactors. […] All tests, except the blanks, were performed in single repetition, resulting in 40 independent incubations, as specified in Table 1. Incubation conditions of the pre-screening experiment and the final experiment were 48 h at 37° C., under shaking (90 rpm) and anaerobic conditions. DNA were extracted from effluent samples collected from each fermentation flask before (0 h fermentation) and after fermentation (24 h fermentation) and use for microbiome composition analysis by Shotgun sequencing. Effluent samples were collected from each fermentation flask before (0 h fermentation) and after fermentation (48 h fermentation), sterilized by filtering through 0.22 μm filters and used for short chain fatty acids (SCFA), quantification of immunological biomarkers and in vitro analysis in cell culture systems.
# For both sets of in vitro experiments, colon incubations were performed in closed incubation systems as described above. This allowed to evaluate the accumulation of gasses in the headspace, which can be measured with a pressure meter. Gas production is a measure of microbial activity, and thus of the speed of fermentation of the potentially prebiotic substrates
Molecule,litter microbiome bacterial composition and species richness/diversity (litter microbiota),"PCA of functional features (6361 features, 63 samples) [1]",ileal species richness (observed OTUs) (ileal microbiota),Bifidobacterium relative abundance (Bifidobacterium; 0.2× dose),Bifidobacterium relative abundance (Bifidobacterium; 1× dose),Bifidobacterium relative abundance (Bifidobacterium; 5× dose),relative abundance of genes involved in Acetyl-CoA fermentation to Butyrate pathway [2],gas production ([3]; 1× dose),gas production ([3]; 5× dose)
"Cc1cc2nc3c(=O)[nH]c(=O)nc-3n(C[C@H](O)[C@H](O)[C@H](O)CO)c2cc1C [Vitamin B2, riboflavin]",no significant differences,clear visible separation,increase in terms of species richness,,,,,,
Vitamin E,,,,increase Bifidobacterium relative abundance,increase Bifidobacterium relative abundance,increase Bifidobacterium relative abundance,increase relative abundance,reduced gas production,reduced gas production
